Measurements from patent publication US20230210819A1, “USE OF BENZISOSELAZOLE DERIVATIVE FOR ANTI-CORONAVIRUS AND CONTROL OF INTERSTITIAL LUNG DISEASE (ILD) RELATED TO CORONAVIRUS” (SHANGHAI YUANXI MEDICINE CORP., priority 2020, published 2023).

Legend:
Type in all cases: in vivo, C57 mice
[1] = test system: bleomycin-induced mouse lung disease model; assay: Assay of lung tissues for hydroxyproline content, 24-h modeling; settings: BS 90 mg/kg gavage daily, day 35 of administration
Protocol: Animals of 24-h modeling were randomly divided into 5 groups according to the table below, 3 animals per control group and 5 animals per test group.
(§1) Drug administration began 24 h or 7 d after modeling. […] The day of the first administration was counted as D1, the next day as D2, and so forth. The normal groups and Model groups were given 200 µL of normal saline daily by gavage administration.
[…] 2 mL of pre-cooled normal saline was added. The tissues were cut into as many pieces as possible and centrifuged at 2000 rpm/min for 2 min, and the supernatant was discarded. • 2. To the precipitate was added 1 mL of RIPA lysis buffer (mixed protease inhibitor Cocktail was added in a ratio of 1:100 before use, and the resulting mixture was preserved on ice). […]
(II) Protein concentration assay by BCA • 1. […] A proper BCA working solution was freshly prepared according to the quantity of the standard substance and samples. […] The plate was incubated at 37° C. for 30 min, and the absorbance at 570 nm was measured on a microplate reader. The sample protein concentration was calculated from the standard curve.
(III) HYP level assay • 1. […] To each well was added 50 µL of terminating solution, and the absorbance was immediately measured at a wavelength of 450 nm. […]

[2] = test system: cytokines in bronchoalveolar lavage fluid; assay: Inflammatory factor assay of bronchoalveolar lavage fluid by ELISA; settings: for Percent reduction in IFN-γ in bronchoalveolar lavage fluid with respect to the Model group / Percent reduction in PPAR-y in bronchoalveolar lavage fluid with respect to the Model group: negative = increase; for IL-1β in bronchoalveolar lavage fluid / IL-2 in bronchoalveolar lavage fluid / IL-6 in bronchoalveolar lavage fluid / TNF-α in bronchoalveolar lavage fluid: second half of table, head taken from the 24th table
Protocol: (§2) Animals of 7-d modeling were randomly divided into 7 groups according to the table below, 6 animals per control group and 12 animals per test group.
as §1
(§3) After the mouse was fixed, its trachea and chest cavity were exposed, and the trachea and the esophagus were bluntly separated with an ophthalmic curved forceps. Two sutures were made between the trachea and the esophagus. An intravenous trocar was inserted into the trachea and ligated at the site where it entered the trachea and at its distal end. A 1 mL syringe was connected to draw in 1 mL of pre-cooled PBS and infuse it into the lung tissue. Significant filling in the lung could be seen with the naked eye. The infusion was stopped for 10 s and withdrawal was performed. The infusion/withdrawal cycle was repeated 3 times. The withdrawn BALF was transferred to a clean EP tube and centrifuged at 4° C., and the supernatant was collected and preserved at -80° C. The bronchoalveolar lavage fluid was assayed for inflammatory factors by ELISA.

[3] = test system: inflammatory cells in bronchoalveolar lavage fluid; assay: Inflammatory cell assay of bronchoalveolar lavage fluid, 7-d modeling
Protocol: as §2, §1
as §3, with “eye. The syringe was held” for “eye. The infusion was stopped”, “syringe was held for 10” for “infusion was stopped for 10”, “C. The cells were subjected to routine tests.” for “C. The bronchoalveolar lavage fluid was assayed for inflammatory factors by ELISA.”
Upon the end of the administration, the leukocytes (lymphocytes, neutrophils and monocytes) in the bronchoalveolar lavage fluids of the mice in the 7-d modeling groups were classified and counted.

O=c1c2ccccc2[se]n1CCCCn1[se]c2ccccc2c1=O [BS, 1,4-[bis(1,2-benzisoselenazol-3(2H)-one)]butane]
HY7P, hydroxyproline content in the lungs [1]: 2.17 ± 0.19 µg/mL
IFN-γ in bronchoalveolar lavage fluid ([2]; BSH: BS 180 mg/kg gavage daily): 55.70 ± 4.27 pg/mL
NF-κB in bronchoalveolar lavage fluid ([2]; BSH: BS 180 mg/kg gavage daily): 759.34 ± 104.53 pg/mL
PPAR-γ in bronchoalveolar lavage fluid ([2]; BSH: BS 180 mg/kg gavage daily): 237.75 ± 24.92 pg/mL
Percent reduction in IL-1β in bronchoalveolar lavage fluid with respect to the Model group ([2]; BSH: BS 180 mg/kg gavage daily): 61.70%
Percent reduction in IL-2 in bronchoalveolar lavage fluid with respect to the Model group ([2]; BSH: BS 180 mg/kg gavage daily): 10.87%
Percent reduction in IL-6 in bronchoalveolar lavage fluid with respect to the Model group ([2]; BSH: BS 180 mg/kg gavage daily): 67.10%
Percent reduction in NF-κB in bronchoalveolar lavage fluid with respect to the Model group ([2]; BSH: BS 180 mg/kg gavage daily): 17.22%
Percent reduction in TGF-β in bronchoalveolar lavage fluid with respect to the Model group ([2]; BSH: BS 180 mg/kg gavage daily): 14.53%
Percent reduction in TNF-α in bronchoalveolar lavage fluid with respect to the Model group ([2]; BSH: BS 180 mg/kg gavage daily): 22.95%
TGF-β in bronchoalveolar lavage fluid ([2]; BSH: BS 180 mg/kg gavage daily): 161.82 ± 20.96 pg/mL
Percent reduction in IFN-γ in bronchoalveolar lavage fluid with respect to the Model group ([2]; BSH: BS 180 mg/kg gavage daily): -67.81%
Percent reduction in PPAR-y in bronchoalveolar lavage fluid with respect to the Model group ([2]; BSH: BS 180 mg/kg gavage daily): -9.52%
IL-1β in bronchoalveolar lavage fluid ([2]; BSH: BS 180 mg/kg gavage daily): 4.78 ± 0.69 pg/mL
IL-2 in bronchoalveolar lavage fluid ([2]; BSH: BS 180 mg/kg gavage daily): 40.37 ± 5.25 pg/mL
IL-6 in bronchoalveolar lavage fluid ([2]; BSH: BS 180 mg/kg gavage daily): 9.47 ± 1.96 pg/mL
TNF-α in bronchoalveolar lavage fluid ([2]; BSH: BS 180 mg/kg gavage daily): 43.24 ± 7.14 pg/mL
Inhibitory effect on inflammatory cells and proinflammatory factors (NF-κB, TNF-α, IL-1β, IL-2, IL-6) compared to Dex, in words ([2]; BSH: BS 180 mg/kg, used alone): greater inhibitory effect
IFN-γ in bronchoalveolar lavage fluid ([2]; BSL: BS 36 mg/kg gavage daily): 38.74 ± 4.74 pg/mL
NF-κB in bronchoalveolar lavage fluid ([2]; BSL: BS 36 mg/kg gavage daily): 867.20 ± 174.12 pg/mL
PPAR-γ in bronchoalveolar lavage fluid ([2]; BSL: BS 36 mg/kg gavage daily): 38.74 ± 4.74 pg/mL
Percent reduction in IL-1β in bronchoalveolar lavage fluid with respect to the Model group ([2]; BSL: BS 36 mg/kg gavage daily): 17.88%
Percent reduction in IL-2 in bronchoalveolar lavage fluid with respect to the Model group ([2]; BSL: BS 36 mg/kg gavage daily): 4.03%
Percent reduction in IL-6 in bronchoalveolar lavage fluid with respect to the Model group ([2]; BSL: BS 36 mg/kg gavage daily): 49.92%
Percent reduction in NF-κB in bronchoalveolar lavage fluid with respect to the Model group ([2]; BSL: BS 36 mg/kg gavage daily): 5.46%
Percent reduction in TGF-β in bronchoalveolar lavage fluid with respect to the Model group ([2]; BSL: BS 36 mg/kg gavage daily): 0.42%
Percent reduction in TNF-α in bronchoalveolar lavage fluid with respect to the Model group ([2]; BSL: BS 36 mg/kg gavage daily): 7.38%
TGF-β in bronchoalveolar lavage fluid ([2]; BSL: BS 36 mg/kg gavage daily): 188.54 ± 24.55 pg/mL
Percent reduction in IFN-γ in bronchoalveolar lavage fluid with respect to the Model group ([2]; BSL: BS 36 mg/kg gavage daily): -16.73%
Percent reduction in PPAR-y in bronchoalveolar lavage fluid with respect to the Model group ([2]; BSL: BS 36 mg/kg gavage daily): -5.79%
IL-1β in bronchoalveolar lavage fluid ([2]; BSL: BS 36 mg/kg gavage daily): 10.26 ± 1.29 pg/mL
IL-2 in bronchoalveolar lavage fluid ([2]; BSL: BS 36 mg/kg gavage daily): 43.46 ± 7.51 pg/mL
IL-6 in bronchoalveolar lavage fluid ([2]; BSL: BS 36 mg/kg gavage daily): 14.41 ± 1.33 pg/mL
TNF-α in bronchoalveolar lavage fluid ([2]; BSL: BS 36 mg/kg gavage daily): 51.98 ± 4.37 pg/mL
IFN-γ in bronchoalveolar lavage fluid ([2]; BSM: BS 90 mg/kg gavage daily): 53.31 ± 5.29 pg/mL
NF-κB in bronchoalveolar lavage fluid ([2]; BSM: BS 90 mg/kg gavage daily): 824.16 ± 155.14 pg/mL
Percent reduction in IL-1β in bronchoalveolar lavage fluid with respect to the Model group ([2]; BSM: BS 90 mg/kg gavage daily): 47.93%
Percent reduction in IL-2 in bronchoalveolar lavage fluid with respect to the Model group ([2]; BSM: BS 90 mg/kg gavage daily): 9.81%
Percent reduction in IL-6 in bronchoalveolar lavage fluid with respect to the Model group ([2]; BSM: BS 90 mg/kg gavage daily): 54.37%
Percent reduction in NF-κB in bronchoalveolar lavage fluid with respect to the Model group ([2]; BSM: BS 90 mg/kg gavage daily): 10.15%
Percent reduction in TGF-β in bronchoalveolar lavage fluid with respect to the Model group ([2]; BSM: BS 90 mg/kg gavage daily): 2.87%
Percent reduction in TNF-α in bronchoalveolar lavage fluid with respect to the Model group ([2]; BSM: BS 90 mg/kg gavage daily): 11.68%
TGF-β in bronchoalveolar lavage fluid ([2]; BSM: BS 90 mg/kg gavage daily): 178.54 ± 14.64 pg/mL
Percent reduction in IFN-γ in bronchoalveolar lavage fluid with respect to the Model group ([2]; BSM: BS 90 mg/kg gavage daily): -60.63%
Percent reduction in PPAR-y in bronchoalveolar lavage fluid with respect to the Model group ([2]; BSM: BS 90 mg/kg gavage daily): -6.09%
IL-1β in bronchoalveolar lavage fluid ([2]; BSM: BS 90 mg/kg gavage daily): 6.50 ± 1.38 pg/mL
IL-2 in bronchoalveolar lavage fluid ([2]; BSM: BS 90 mg/kg gavage daily): 40.84 ± 3.88 pg/mL
IL-6 in bronchoalveolar lavage fluid ([2]; BSM: BS 90 mg/kg gavage daily): 13.13 ± 1.03 pg/mL
TNF-α in bronchoalveolar lavage fluid ([2]; BSM: BS 90 mg/kg gavage daily): 49.57 ± 5.97 pg/mL
Effect on pulmonary inflammation (in words) ([3]; BS 180 mg/kg, better than Dex (1-1.5 mg/kg)): significantly ameliorate pulmonary inflammation
Absolute leukocyte count in bronchoalveolar lavage fluid ([3]; BSH: BS 180 mg/kg gavage daily): 0.43±0.04 10^9/L
Absolute lymphocyte count in bronchoalveolar lavage fluid ([3]; BSH: BS 180 mg/kg gavage daily): 0.34±0.03 10^9/L
Absolute monocyte count in bronchoalveolar lavage fluid ([3]; BSH: BS 180 mg/kg gavage daily): 0.02±0.00 10^9/L
Absolute neutrophil count in bronchoalveolar lavage fluid ([3]; BSH: BS 180 mg/kg gavage daily): 0.02±0.01 10^9/L
Percent reduction in leukocytes in bronchoalveolar lavage fluid with respect to the Model group ([3]; BSH: BS 180 mg/kg gavage daily): 58.39%
Percent reduction in lymphocytes in bronchoalveolar lavage fluid with respect to the Model group ([3]; BSH: BS 180 mg/kg gavage daily): 60.73%
Percent reduction in monocytes in bronchoalveolar lavage fluid with respect to the Model group ([3]; BSH: BS 180 mg/kg gavage daily): 57.14%
Percent reduction in neutrophils in bronchoalveolar lavage fluid with respect to the Model group ([3]; BSH: BS 180 mg/kg gavage daily): 74.07%
Absolute leukocyte count in bronchoalveolar lavage fluid ([3]; BSL: BS 36 mg/kg gavage daily): 0.87±0.04 10^9/L
Absolute lymphocyte count in bronchoalveolar lavage fluid ([3]; BSL: BS 36 mg/kg gavage daily): 0.70±0.03 10^9/L
Absolute monocyte count in bronchoalveolar lavage fluid ([3]; BSL: BS 36 mg/kg gavage daily): 0.04±0.01 10^9/L
Absolute neutrophil count in bronchoalveolar lavage fluid ([3]; BSL: BS 36 mg/kg gavage daily): 0.08±0.01 10^9/L
Percent reduction in leukocytes in bronchoalveolar lavage fluid with respect to the Model group ([3]; BSL: BS 36 mg/kg gavage daily): 16.29%
Percent reduction in lymphocytes in bronchoalveolar lavage fluid with respect to the Model group ([3]; BSL: BS 36 mg/kg gavage daily): 19.54%
Percent reduction in monocytes in bronchoalveolar lavage fluid with respect to the Model group ([3]; BSL: BS 36 mg/kg gavage daily): 25.00%
Percent reduction in neutrophils in bronchoalveolar lavage fluid with respect to the Model group ([3]; BSL: BS 36 mg/kg gavage daily): 7.41%
Absolute leukocyte count in bronchoalveolar lavage fluid ([3]; BSM: BS 90 mg/kg gavage daily): 0.69±0.06 10^9/L
Absolute lymphocyte count in bronchoalveolar lavage fluid ([3]; BSM: BS 90 mg/kg gavage daily): 0.56±0.05 10^9/L
Absolute monocyte count in bronchoalveolar lavage fluid ([3]; BSM: BS 90 mg/kg gavage daily): 00.3±0.01 10^9/L
Absolute neutrophil count in bronchoalveolar lavage fluid ([3]; BSM: BS 90 mg/kg gavage daily): 0.08±0.01 10^9/L
Percent reduction in leukocytes in bronchoalveolar lavage fluid with respect to the Model group ([3]; BSM: BS 90 mg/kg gavage daily): 32.90%
Percent reduction in lymphocytes in bronchoalveolar lavage fluid with respect to the Model group ([3]; BSM: BS 90 mg/kg gavage daily): 35.63%
Percent reduction in monocytes in bronchoalveolar lavage fluid with respect to the Model group ([3]; BSM: BS 90 mg/kg gavage daily): 42.86%
Percent reduction in neutrophils in bronchoalveolar lavage fluid with respect to the Model group ([3]; BSM: BS 90 mg/kg gavage daily): 16.67%
